ChEMBL document CHEMBL4602712, “Synthesis and Evaluation of Noncovalent Naphthalene-Based KEAP1-NRF2 Inhibitors” (ACS Med Chem Lett, 2020)

target: Kelch-like ECH-associated protein 1 (Homo sapiens, UniProt Q14145); assay: Inhibition of FITC-9mer Nrf2 peptide binding to recombinant human KEAP1 Kelch domain (321 to 609 residues) expressed in Escherichia coli BL21 (DE3) by fluorescence polarization assay
Sequence (Q14145 whole entry, the tested form may be a part): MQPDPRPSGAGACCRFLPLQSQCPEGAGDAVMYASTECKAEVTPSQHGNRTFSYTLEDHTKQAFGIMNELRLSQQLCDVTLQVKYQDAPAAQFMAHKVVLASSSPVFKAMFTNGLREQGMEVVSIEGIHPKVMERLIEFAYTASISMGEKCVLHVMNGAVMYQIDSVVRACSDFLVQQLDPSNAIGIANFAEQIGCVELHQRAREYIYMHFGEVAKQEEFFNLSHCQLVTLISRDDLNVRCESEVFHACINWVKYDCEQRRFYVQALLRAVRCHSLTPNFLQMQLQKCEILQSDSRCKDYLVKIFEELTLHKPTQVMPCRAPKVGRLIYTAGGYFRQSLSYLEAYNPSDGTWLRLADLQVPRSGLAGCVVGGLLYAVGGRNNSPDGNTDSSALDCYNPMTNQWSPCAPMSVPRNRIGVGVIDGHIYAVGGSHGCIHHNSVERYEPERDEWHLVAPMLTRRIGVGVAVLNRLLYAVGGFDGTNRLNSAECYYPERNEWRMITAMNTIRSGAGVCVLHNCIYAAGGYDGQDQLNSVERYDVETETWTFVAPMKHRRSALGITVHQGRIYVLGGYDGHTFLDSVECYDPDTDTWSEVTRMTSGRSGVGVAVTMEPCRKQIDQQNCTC

Row | IC50 | SMILES
1 | > 25 µM | COc1ccc(S(=O)(=O)Cc2ccc(CS(=O)(=O)c3ccc(OC)cc3)c3ccccc23)cc1
2 | > 25 µM | COc1ccc(S(=O)(=O)Nc2ccc(/C=C/C(=O)O)c3ccccc23)cc1
3 | > 25 µM | COc1ccc(S(=O)(=O)Nc2ccc(CCC(=O)O)c3ccccc23)cc1
